Legend:
Assay type in all cases: cell-based
gastrin receptor [1] = molecular target: T1, gastrin receptor (Mus musculus, UniProt P56481); test: mouse stomach assay for gastrin activity (isolated stomach, acid secretion); conditions: for pKB mouse stomach: isolated mouse stomach assay, gastrin antagonism, standard errors less than 5%; for Acid seretion at 10^-5 M test compound, relative to pentagastrin (%): mouse stomach, NS = not significant
T1 construct: assayed for gastrin activity using the mouse stomach assay; from tissue; host or cells: isolated mouse stomach
T1 sequence (P56481 1-453): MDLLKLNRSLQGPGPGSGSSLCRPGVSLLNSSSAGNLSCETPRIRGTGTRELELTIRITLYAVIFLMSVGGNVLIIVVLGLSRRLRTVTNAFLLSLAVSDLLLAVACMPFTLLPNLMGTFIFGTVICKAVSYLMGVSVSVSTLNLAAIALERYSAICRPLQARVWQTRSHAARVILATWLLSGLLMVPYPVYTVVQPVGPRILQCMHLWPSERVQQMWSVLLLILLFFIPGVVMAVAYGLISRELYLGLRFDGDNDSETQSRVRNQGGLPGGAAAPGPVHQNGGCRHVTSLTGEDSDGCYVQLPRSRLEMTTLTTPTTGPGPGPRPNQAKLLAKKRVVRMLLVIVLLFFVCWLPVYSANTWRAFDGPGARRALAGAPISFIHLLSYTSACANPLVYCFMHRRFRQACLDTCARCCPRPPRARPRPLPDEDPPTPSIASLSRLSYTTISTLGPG
Experimental: The compounds were assayed for gastrin activity using the mouse stomach assay as described by Black, J. W. and Shankley, N. P., Br. J. Pharmacol., 86, 571-579, (1985), and also in the guinea-pig fundus assay, as follows: […]

gastrin receptor [2] = molecular target: T2, gastrin receptor (Cavia porcellus, UniProt H0VZC5); test: guinea-pig fundus assay for gastrin activity (stomach muscle strips); conditions: 10^-8 M devazepide present, 60 minute equilibration, agonist e.g. pentagastrin, standard errors less than 5%
T2 construct: Strips of muscle (approximately 2.5 cm by 1 cm) are removed from the proximal area of the stomach; from tissue; host or cells: guinea-pig proximal stomach (fundus) muscle strips
T2 sequence (H0VZC5 1-426): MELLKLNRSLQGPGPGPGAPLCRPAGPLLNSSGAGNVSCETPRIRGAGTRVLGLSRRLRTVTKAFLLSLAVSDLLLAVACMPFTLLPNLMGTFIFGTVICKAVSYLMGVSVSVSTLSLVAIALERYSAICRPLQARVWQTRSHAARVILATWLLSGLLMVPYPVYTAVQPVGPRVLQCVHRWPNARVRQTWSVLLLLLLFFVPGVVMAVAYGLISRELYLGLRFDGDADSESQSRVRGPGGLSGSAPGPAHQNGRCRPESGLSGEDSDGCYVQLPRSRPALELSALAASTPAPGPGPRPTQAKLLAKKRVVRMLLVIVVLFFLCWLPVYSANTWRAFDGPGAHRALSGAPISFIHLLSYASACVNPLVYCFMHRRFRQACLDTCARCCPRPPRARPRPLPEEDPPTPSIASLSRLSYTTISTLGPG
In short: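 Proximal stomach muscle strips from male Dunkin-Hartley guinea-pigs were mounted on isotonic transducers at 0.35 g in gassed Krebs containing 10^-8 M devazepide to block CCK receptors, with 10 mM KCl added. Test compounds were equilibrated 60 min before cumulative pentagastrin dose-response curves were run.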

[3] = molecular target: T3, cholecystokinin receptors (Cavia porcellus, UniProt Q63931); test: CCK-antagonist activity in isolated guinea-pig gall-bladder strip preparations; conditions: guinea-pig gall-bladder strips; CCK-8 as agonist; test compound incubated for 60 minutes; standard errors less than 5%
T3 construct: Isolated, strip preparations were prepared from gall-bladders removed from male Dunkin-Hartley guinea-pigs; from tissue; host or cells: guinea-pig gall-bladder strips
T3 sequence (Q63931 1-430): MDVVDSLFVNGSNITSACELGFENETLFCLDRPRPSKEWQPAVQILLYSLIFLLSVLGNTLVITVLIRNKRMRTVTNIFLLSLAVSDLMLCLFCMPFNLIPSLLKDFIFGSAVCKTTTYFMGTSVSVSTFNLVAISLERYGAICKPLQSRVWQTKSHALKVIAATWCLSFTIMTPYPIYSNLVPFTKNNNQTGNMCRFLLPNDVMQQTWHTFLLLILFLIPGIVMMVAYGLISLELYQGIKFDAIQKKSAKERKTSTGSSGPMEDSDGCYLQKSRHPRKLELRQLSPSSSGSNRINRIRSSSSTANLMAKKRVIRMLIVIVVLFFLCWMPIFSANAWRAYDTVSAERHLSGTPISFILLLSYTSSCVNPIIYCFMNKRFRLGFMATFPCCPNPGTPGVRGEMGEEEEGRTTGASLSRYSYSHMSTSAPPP
In short: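 Male Dunkin-Hartley guinea-pig gall-bladder strips under 1 g isometric tension in Krebs (0.5 mM Ca²⁺), 37° C, 95% O2/5% CO2, stabilised 90 min. Cumulative CCK-8 concentration-effect curves without and with test compound (60 min preincubation); antagonism expressed as […] by modified competitive analysis.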

| Molecule | pKB mouse stomach (gastrin receptor [1]) | Acid seretion at 10^-5 M test compound, relative to pentagastrin (%) (gastrin receptor [1]) | pKB (gastrin receptor [2]) | pKB [3] |
| --- | --- | --- | --- | --- |
| CC(C)(C)OC(=O)N[C@@H](Cc1c[nH]c2ccccc12)C(=O)N[C@@H](Cc1ccc2ccccc2c1)C(=O)N[C@@H](CC(=O)O)C(=O)NCCc1ccc(Cl)c(Cl)c1 [Example 42, N-t-Butyloxycarbonyl-L-tryptophyl-L-3-(2-naphthyl)alanyl-L-aspartyl-3,4-dichlorophenethylamide] | 5.2 | 30 | 5.3 | 6.0 |
| CC(C)(C)OC(=O)N[C@@H](Cc1c[nH]c2ccccc12)C(=O)N[C@@H](Cc1ccc2ccccc2c1)C(=O)N[C@@H](CC(=O)O)C(=O)NCCc1ccc(N)cc1 [Example 46, N-t-Butyloxycarbonyl-L-tryptophyl-L-3-(2-naphthyl)alanyl-L-aspartyl-4-aminophenethylamide] | 5.6 | – | 6.0 | 6.5 |
| CC(C)(C)OC(=O)N[C@@H](Cc1c[nH]c2ccccc12)C(=O)N[C@@H](Cc1ccc2ccccc2c1)C(=O)N[C@@H](CC(=O)O)C(=O)NCCc1ccc(F)cc1 [Example 47, N-t-Butyloxycarbonyl-L-tryptophyl-L-3-(2-naphthyl)alanyl-L-aspartyl-4-fluorophenethylamide] | 5.5 | 25 | 5.8 | 6.7 |
| CC(C)(C)OC(=O)N[C@@H](Cc1c[nH]c2ccccc12)C(=O)N[C@@H](Cc1ccc2ccccc2c1)C(=O)N[C@H](CC(=O)O)C(=O)NCCc1ccc(F)cc1 [Example 52, N-t-Butyloxycarbonyl-L-tryptophyl-L-3-(2-naphthyl)alanyl-D-aspartyl-4-fluorophenethylamide] | 5.6 | 25 | 5.9 | 6.4 |
| CC(C)(C)OC(=O)N[C@@H](Cc1c[nH]c2ccccc12)C(=O)N[C@@H](Cc1ccc2ccccc2c1)C(=O)N[C@@H](CC(=O)O)C(=O)NCCc1ccccc1F [Example 54, N-t-Butyloxycarbonyl-L-tryptophyl-L-3-(2-naphthyl)alanyl-L-aspartyl-2-fluorophenethylamide] | 5.4 | 25 | 6.2 | 6.4 |
| COc1cccc(CCNC(=O)[C@H](CC(=O)O)NC(=O)[C@H](Cc2ccc3ccccc3c2)NC(=O)[C@H](Cc2c[nH]c3ccccc23)NC(=O)OC(C)(C)C)c1 [Example 56, N-t-Butyloxycarbonyl-L-tryptophyl-L-3-(2-naphthyl)alanyl-L-aspartyl-3-methoxyphenethylamide] | 5.6 | – | 5.5 | 7.2 |
| CC(C)(C)OC(=O)N[C@@H](Cc1c[nH]c2ccccc12)C(=O)N[C@@H](Cc1ccc2ccccc2c1)C(=O)N[C@@H](CC(=O)O)C(=O)NCCc1cccc(F)c1 [Example 65, N-t-Butyloxycarbonyl-L-tryptophyl-L-3-(2-naphthyl)alanyl-L-aspartyl-3-fluorophenethylamide] | 5.3 | – | 6.1 | 6.7 |
| N-t-Butyloxycarbonyl-L-tryptophyl-L-3-(2-naphthyl)alanyl-L-aspartylphenethylamide [Example 2] | 5.6 | 20 | 5.9 | 6.9 |
